Here are results for 75 compounds from PubChem BioAssay AID540268 (Broad Institute, 2011).

This test can be described thus: growth inhibition of yeast carrying parasite Hsp90, dose response, anti-malarial Hsp90 inhibitor project, ATP luminescence, 48 h, cherry-picked samples (AID 540268).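 For activity change, negative = inhibition: 0% = neutral control wells and -100% = positive control wells.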 To be noted: yeast expressing the parasite Hsp90, ATP luminescence; for activity change, negative = inhibition: at 26 µM (top of the series).

Molecules are shown by their SMILES. Values joined by “and” are separate entries in the source; they are usually repeats but may differ in a detail not shown here. Equal entries are not always repeated. Active and inactive are the calls of the source. The rule behind the calls is not given here.

For `CCCCC(CC)CN=C(N)NC(N)=NCCCCCCN=C(N)NC(N)=NCC(CC)CCCC` (stereo not given), the AC50 (in general, the midpoint of the concentration-response curve, whichever way the signal moves) is 4.34 µM.

As to `CN(C)CC1CC/C(=C\c2ccc(O)cc2)C1=O` (stereo not given), the AC50 is 5.54 µM. Still for that read-out and setting: next, `CC(C)(C)C(O)C(Cc1ccccc1Cl)n1cncn1` (stereo not given): < 0.195 µM; `CCCC(=O)NC(c1ccccc1)c1ccc2cccnc2c1O` (stereo not given): 4.7 µM; `CCN(CC)N=Nc1[nH]nc2nc(C)cc(C)c12`: 4.33 µM.

In the case of `COc1ccccc1-c1sc2cc3c(cc2c1-c1ccc(O)cc1)OCO3`, the half-maximal activity concentration (AC50) is 8.2 µM.

With `CC(=O)N(C)c1ccc(OCC(O)Cn2c3ccc(Cl)cc3c3cc(Cl)ccc32)cc1` (stereo not given), the AC50 was 4.56 µM. The same measure, in the same setting: next, `CN1CCc2nc3sc(C(=O)C45CC6CC(CC(C6)C4)C5)c(N)c3cc2C1`: 0.502 µM; `Cc1cc(N=Nc2ccccc2C(=O)O)c(C)c(C)c1O`: 4.79 µM; `COc1ccc(Nc2cnn(-c3nc4ccccc4s3)c(=O)c2Cl)cc1`: 3.21 µM. Turning to `O=[N+]([O-])c1cccc(SSc2cccc([N+](=O)[O-])c2)c1`, the concentration at half-maximal activity (AC50) is 4.62 µM.

For `O=C(O)c1cccc(N/N=C/c2cc(Br)cc(Br)c2O)c1`, the AC50 was 1.15 µM. With `CCCCCCCCCCCCCCCC[n+]1ccc(C(N)=O)cc1`, the concentration at half-maximal activity (AC50) is 7.6 µM. Still for that read-out and setting: the result for `O=C1C=CC(=O)N1c1ccc2ccccc2c1` reads 0.568 µM; that for `Cn1c2ccccc2c2ccc3c(c21)C(=O)C=CC3=O`, 8.02 µM.

Turning to `C/C(=N\Nc1nc2ccccc2s1)c1ccc(Br)s1`, the AC50 was 4.47 µM. Same read-out and setting: the result for `O=C(Nc1ccccc1)C(Cl)C(=O)c1ccccc1` (stereo not given) reads 0.532 µM; that for `O=S(=O)(NC1CC2CCC1C2)c1ccc(Cl)cc1` (stereo not given), 3.46 µM. `O=c1c2c3c(sc2ncn1/N=C/c1ccc([N+](=O)[O-])o1)CCCC3`: the AC50 was 2.66 µM. On the same count and under the same terms, the result for `O=C(/C=C/c1ccccc1)CCN1CCOCC1` reads 2.47 µM; that for `Cc1c(Cl)sn(-c2ccc(Cl)cc2)c1=O`, < 0.195 µM. Still for that read-out and setting: next, `COC(=O)/C=C\C(=O)Nc1cccc([N+](=O)[O-])c1`: 2.43 µM; `CC(C)(C)c1ccc(NC(=O)COC(=O)c2ccc([N+](=O)[O-])s2)cc1`: 3.88 µM. For the compound `COC(=O)c1ccc(NC(=O)c2cn(-c3ccccc3)nc2-c2ccncc2)cc1`, the AC50 is 4.08 µM. On the same count and under the same terms, the result for `O=C1NC(=S)S/C1=C\C=C\c1ccc([N+](=O)[O-])o1` reads 2.45 µM; that for `O=C1C=CC(=O)C2C1C1(Cl)C(Cl)=C(Cl)C2(Cl)C1(Cl)Cl` (stereo not given), 8.65 µM. On the same count and under the same terms, the result for `CC1=NOC(=O)/C1=C/c1ccc(-c2ccc(Cl)cc2)o1` reads 2.43 µM.

On to `CC(C)(C)c1cc(-c2nc(N)nc(N)n2)c(O)c(C(C)(C)C)c1`, for which the concentration at half-maximal activity (AC50) was 15.1 µM. Same read-out and setting: next, `O=[N+]([O-])/C=C/c1c(Cl)cccc1Cl`: 0.457 µM; `COc1ccc(N=Cc2cc(Cc3ccccc3Cl)cc([N+](=O)[O-])c2O)cc1OC`: 1.5 µM. As for `Oc1c(Cl)cc(Cl)c(Cl)c1Cc1c(O)c(Cl)cc(Cl)c1Cl`, the AC50 is 0.676 µM. The same measure, in the same setting: next, `O=[N+]([O-])c1ccc(N2N=C(c3ccccc3)CC2c2ccccc2O)cc1` (stereo not given): 3.91 µM; `COc1ccccc1-c1sc2ccccc2c1-c1ccc(O)cc1`: 3.78 µM. Still for that read-out and setting: next, `O=C(/C=C/c1ccc(Cl)c([N+](=O)[O-])c1)c1cccnc1`: 0.806 µM; `N#C/C(=C\c1cccc([N+](=O)[O-])c1)C(=O)NCc1ccc(Cl)cc1`: 6.75 µM; `Oc1ccc(Br)cc1/C=N/Nc1ccccn1`: 2.67 µM. As for `O=C(N/N=C\c1c(O)ccc2ccccc12)c1cncc(Br)c1`, the AC50 is 4.28 µM. Regarding `C[C@H]1C[C@@H](C)C(=O)[C@@H]([C@H](O)CC2CC(=O)NC(=O)C2)C1`, the half-maximal activity concentration (AC50) is < 0.195 µM. The same measure, in the same setting: the result for `COc1ccc(OC)c2c1C(=O)C(Cl)=C(Cl)C2=O` reads 1.64 µM; that for `CC(C)OC(=O)c1ccc(NCc2cc(O)ccc2O)cc1`, 6.94 µM. Still for that read-out and setting: the result for `Clc1nssc1=Nc1ccc(Br)cc1` reads 3.4 µM. With `CCCC(=O)NC(c1ccc(C)cc1)c1ccc2cccnc2c1O` (stereo not given), the AC50 is 3.4 µM. `Cc1ccc(CSc2nc3ccsc3c(=O)n2Cc2ccccn2)cc1`: the AC50 was 9.62 µM. Consider `C[C@@]12C(=O)Nc3ccc(Cl)cc3C(=O)N1[C@H]1c3ccccc3OC[C@@H]1[C@@H]2c1ccccc1`, for which the AC50 was 0.487 µM. Regarding `CCCCCCCCCCCCCCCC[n+]1ccccc1`, the AC50 was 4.03 µM and 3.43 µM.

As for `CCN(CC)c1ccc(C(=C2C=CC(=[N+](CC)CC)C=C2)c2ccccc2)cc1`, the AC50 is 1.09 µM. On to `Cc1ccc(N/N=C(\C#N)C(N)=S)c(C)c1`, for which the AC50 is 1.32 µM. On to `O=c1cc(-c2ccc(C3CCCCC3)cc2)[nH][nH]1`, for which the half-maximal activity concentration (AC50) is 7.7 µM. Same read-out and setting: the result for `O=C(/C=C/c1ccnc2ccccc12)c1cccs1` reads 4.64 µM. The same measure, in the same setting: the result for `CC(C)(C)c1nnc(N/N=C/c2cc(Br)ccc2O)n(N)c1=O` reads 4.92 µM; that for `CCOc1cc(/C=C\[N+](=O)[O-])ccc1OCC(=O)Nc1ccccc1C`, 2.61 µM; that for `COc1ccc(SN=C2C(C)=CC(=O)C=C2C)cc1`, 5.7 µM. The same measure, in the same setting: next, `CCCC(=O)NC(c1ccc(OC)c(OC)c1)c1cc(Cl)c2cccnc2c1O` (stereo not given): 6.12 µM; `Oc1ccc(Cl)cc1Cc1cc(Cl)ccc1O`: 5.41 µM; `COc1ccccc1OCc1cc(C(=O)N2CCN(C)C(c3ccccc3)C2)no1` (stereo not given): 3.05 µM.

Regarding `O=C(C1CCN(C2CC(=O)N(c3cccc(Cl)c3)C2=O)CC1)N1CCCC1` (stereo not given), the AC50 was 3.94 µM. As to `O=C(/C(=C\c1ccccc1)c1nc2ccccc2[nH]1)c1ccc(Cl)cc1`, the activity change, negative = inhibition was -31.8% (inactive). `O=[N+]([O-])c1cnc(Sc2ccncn2)s1`: the AC50 was 3.02 µM. For the compound `N#C/C(=C/c1ccc(N2CCCCCC2)o1)c1ccc(Cl)cc1`, the activity change, negative = inhibition was -50.5% (inactive). Turning to `CCCNC(=O)c1nnsc1S(=O)(=O)c1ccc(Cl)cc1`, the AC50 is 0.758 µM. On the same count and under the same terms, the result for `O=[N+]([O-])c1ccc(C=Nc2cccc3ccccc23)s1` reads 8.33 µM; that for `O=C(N/N=C/c1c(O)ccc2ccccc12)c1cccc(C(F)(F)F)c1`, 2.86 µM; that for `O=c1c(-c2ccccc2)c(-c2ccccc2)oc2cc(O)cc(O)c12`, 8.72 µM.

As to `O=C1c2ccccc2NC(c2ccc(-c3ccc(C(F)(F)F)cc3)o2)N1O` (stereo not given), the AC50 was 7.62 µM. Still for that read-out and setting: next, `O=[N+]([O-])c1oc2ccc3ccccc3c2c1CCO`: 2.06 µM; `c1cnc2c(c1)ccc1cccnc12`: 6.61 µM; `Cc1cc2c(cc1C)CSC(c1c(O)ccc3ccccc13)SC2`: 4.26 µM.

Take `Oc1c(CN2CCc3ccccc3C2)cc(Cl)c2cccnc12`: the AC50 is 7.82 µM. As for `CCCCCCCCCCCCCC(=O)NO`, the AC50 is < 0.195 µM. In the case of `Cc1cc(C2CCCCC2)n(O)c(=O)c1`, the AC50 is 1.19 µM. Still for that read-out and setting: the result for `CCc1ccccc1NC(=O)c1cccc(Oc2ccc([N+](=O)[O-])cc2Cl)c1` reads 4.12 µM; that for `O=C(OCn1ncc(Cl)c(Cl)c1=O)c1cccc(C(F)(F)F)c1`, 5.36 µM.

Consider `COc1ccc(NC2CCN(C3CC(=O)N(c4ccc(F)c(Cl)c4)C3=O)CC2)cc1` (stereo not given), for which the concentration at half-maximal activity (AC50) is 2.61 µM. Same read-out and setting: the result for `CCS(=O)(=O)Nc1cccc(-c2cc(-c3ccccc3)c3cc(C)ccc3n2)c1` reads 4.55 µM. `CC(C)(C)C(O)C(Oc1ccc(Cl)cc1)n1cncn1` (stereo not given): the AC50 is < 0.195 µM.
